These results are taken from patent US11160803B2, “Phthalazinone derivatives” (KUDOS PHARMACEUTICALS LIMITED, priority 2003, dated 2021).

In experiment [1] the test system is Brca2 wild type (D3) ES cells. Description: Clonogenic survival, continuous exposure, Brca2 wild type ES cells. The class given is cell-based. As to conditions: matched wild type cells (Brca2), clonogenic assay, continuous exposure (FIG. 1B). How it is done: (§1) To assess the stand alone activity of a PARP inhibitor on Braca 1 and 2 deficient cells the following protocols were used.
(§2) Compound (4) was dissolved in DMSO at 10 mM and stored at −20° C. in the dark.
(§3) VC8 cells and the mouse Brca2 BAC complemented derivatives were as described in M. Kraakman-van der Zwet, et al., Mol Cell Biol 22, 669-79 (2002)). ES cells defective in Brca2 function have been described previously (Tutt, et al., EMBO Rep 3, 255-60 (2002)). The construction of ES cells defective in Brca1 will be described elsewhere but have previously been validated (Foray, et al., Embo J, 22, 2860-71 (2003)).
(§4) For measurement of cellular sensitivity to a PARP inhibitor (compound 4), cell cultures in exponential growth were trypsinised and seeded at various densities in 6-well plates onto Mitomycin C inactivated mouse embryonic fibroblasts and where appropriate treated with the test compound after 18 hours. For continuous exposure, cells were re-fed every 4 days with fresh medium and inhibitor. After 10-14 days, cells were washed with PBS, fixed in methanol and stained with crystal violet. Colonies containing greater than approximately 50 cells were counted. Experiments were performed at least three times in triplicate.

Experiment [2] deals with Brca1 deficient (Cre10) ES cells. Description: Clonogenic survival, continuous exposure, Brca1 deficient ES cells. The experiment is classed as cell-based. How it is done:
as §1, §2, §3, §4

The subject of experiment [3] is Brca2 deficient (Cre24) ES cells. The experiment can be described thus: Clonogenic survival, continuous exposure, Brca2 deficient ES cells. The class given is cell-based. As to conditions: ratio of SF50 wild type / Brca2 deficient ES cells. How it is done:
as §1, §2, §3, §4

In experiment [4] the test system is Brca1 wild type (11CO) ES cells. The experiment can be described thus: Clonogenic survival, continuous exposure, Brca1 wild type ES cells. The class given is cell-based. As to conditions: matched wild type cells (Brca1), clonogenic assay, continuous exposure (FIG. 1A). How it is done: as §1, §2, §3, §4
The test system of experiment [5] is Chinese hamster ovary cells deficient in Brca2 (VC8). Description: Clonogenic survival, continuous exposure, Brca2 deficient VC8 cells. The class given is cell-based.
Experiment [6] concerns Brca2-complemented derivative (VC8-BAC). Description: Clonogenic survival, continuous exposure, Brca2-complemented VC8-BAC cells. The class given is cell-based, Chinese hamster. The note with it: matched control VC8-BAC, clonogenic assay (FIG. 2).

As for `O=C(c1cc(Cc2n[nH]c(=O)c3ccccc23)ccc1F)N1CCCNCC1` [compound 4, 4-[3-([1,4]diazepane-1-carbonyl)-4-fluorobenzyl]-2H-phthalazin-1-one], the “SF50 (dosage at which 50% of cells survived)” value in experiment [1] was found to be 18 µM; in experiment [2] (cells deficient in Brca1, clonogenic assay, continuous exposure (FIG. 1A)) it was 15 nM; in experiment [4], 7 µM; in experiment [5] (Brca2 deficient VC8 line, clonogenic assay (FIG. 2)) it was 50 nM; in experiment [6], 30 µM. In addition, the “fold enhanced sensitivity of Brca1 mutant cells compared to wild type cells” value in experiment [2] (ratio of SF50 wild type / Brca1 deficient) turned out to be 467 fold. Also, the results for the “fold enhanced sensitivity of Brca2 mutant cells compared to wild type cells” value in experiment [3] and in experiment [5] (ratio of SF50 VC8-BAC / VC8) were 1,500 fold and 600 fold, respectively.
